As a reminder, the Ki is a measure of affinity in units of concentration, obtained from inhibition or displacement. Low values mean higher affinity, high ones lower affinity. For orientation: pKi means the negative decadic logarithm of the Ki, by convention in mol/L. Read a high pKi as a small Ki.

Our source for the Ki and pKi values is ChEMBL document CHEMBL4017548, “Molecular Hybridization of Potent and Selective γ-Hydroxybutyric Acid (GHB) Ligands: Design, Synthesis, Binding Studies, and Molecular Modeling of Novel 3-Hydroxycyclopent-1-enecarboxylic Acid (HOCPCA) and trans-γ-Hydroxycrotonic Acid (T-HCA) Analogs” (J Med Chem, 2017).

Bounds are passed on as bounds.

This experiment is described as follows: Displacement of [3H]NCS-382 from GHB binding site in Sprague-Dawley rat brain synaptosomal membranes after 1 hr by scintillation counting method. A general note: Displacement assays read how much labelled ligand stays bound in the presence of the test substance.
`O=C(O)C1=CCCC1` yielded a Ki of 31 µM and a pKi of 4.51. For `O=C(O)C#CCO`, the Ki turned out to be 4.3 µM and the pKi worked out at 5.5. The like results for `O=C(O)C1=CC(O)CC1` (stereo not drawn) were, in that order, 0.13 to 0.16 µM and 6.89. The like results for `O=C(O)/C=C/C1(O)CCCCC1` were, in that order, 4.3 µM and 5.37.

`O=C(O)C1=C(c2ccc(Cl)cc2)C(O)CC1` (stereo not drawn) displayed a Ki of 70 µM and a pKi of 4.16.

Turning to `O=C(O)C#CC1(O)CCC1`, the affinity, expressed as Ki, was 1.6 µM and the pKi is on record as 5.78. The molecule `COc1ccc(C2=C(C(=O)O)CCC2O)cc1` (stereo not drawn) registered a Ki of over 300 µM. `O=C(O)C1=CC(c2ccccc2)CC1` (stereo not drawn): affinity was put at a Ki of 16 µM and the pKi turned out to be 4.8. For `O=C(O)C1=CC(c2ccc(OCc3ccccc3)cc2)CC1` (stereo not drawn), the Ki came to 1.6 µM and the pKi was determined as 5.77. The molecule `CCC1=C(C(=O)O)CCC1O` (stereo not drawn) yielded a Ki of over 300 µM. The molecule `O=C(O)C1=CC(c2ccc(-c3ccccc3)cc2)CC1` (stereo not drawn) returned a Ki of 3.2 µM and a pKi of 5.49.

`O=C(O)C1=C[C@H](O)CC1`: the Ki was determined as 0.11 µM.

As to `O=C(O)[C@@H]1CC[C@@](O)(c2ccccc2)C1`, the Ki is 53 µM and the pKi worked out at 4.28. As to `O=C(O)C1=C(c2ccccc2)C(O)CC1` (stereo not drawn), the Ki was 48 µM and the negative logarithm of the Ki (pKi) is on record as 4.32. The like results for `O=C(O)C#CC1(O)CCCCC1` were, in that order, 7.7 µM and 5.12. The like results for `O=C(O)C1=C(Cc2ccccc2)C(O)CC1` (stereo not drawn) were, in that order, 38 µM and 4.43.

`O=C(O)C1CC(O)C1` (stereo not drawn) returned a Ki of 70 µM and a pKi of 4.16. `Cc1ccc(C2=C(C(=O)O)CCC2O)cc1` (stereo not drawn) displayed a Ki of 157 µM and a pKi of 3.81. The like results for `O=C(O)/C=C/C1(O)CCCC1` were, in that order, 3.1 µM and 5.51. `O=C(O)C1=C(c2ccc(Cl)c(Cl)c2)C(O)CC1` (stereo not drawn) gave a Ki of 62 µM and a pKi of 4.21. For `O=C(O)/C=C/C(O)c1ccc(OCc2ccccc2)cc1` (stereo not drawn) the same measures were 0.043 µM and 7.43.

In turn, `COc1cccc(CC2=C(C(=O)O)CCC2O)c1` (stereo not drawn) came in with a Ki of 46 µM and a pKi of 4.43. Consider `O=C(O)C1=CC(c2ccccc2O)CC1` (stereo not drawn), for which the Ki came to 4.6 µM and the pKi stood at 5.34.

`CC1=C(C(=O)O)CCC1O` (stereo not drawn) displayed a Ki of 80 µM and a pKi of 4.1. Regarding `O=C(O)C1=C[C@@H](O)CC1`, affinity was put at a Ki of 1.4 µM. Molecule `O=C(O)C#CC1(O)CCCC1` gave a Ki of 2.7 µM and a pKi of 5.57. Turning to `O=C(O)[C@@H]1CC[C@@](O)(c2ccc(-c3ccccc3)cc2)C1`, the Ki was 0.51 µM and the pKi worked out at 6.29. For `O=C(O)C1CCC(O)C1` (stereo not drawn) the same measures were 20 µM and 4.71.

Regarding `O=C(O)/C=C/C(O)c1ccc(OCc2ccc(Br)cc2)cc1` (stereo not drawn), the Ki amounted to 0.023 µM and the pKi is reported as 7.64. Molecule `O=C(O)/C=C/C1(O)CCC1` showed a Ki of 3.5 µM and a pKi of 5.47. As for `C=CCC1=C(C(=O)O)CCC1O` (stereo not drawn), the Ki is over 300 µM. Consider `O=C(O)/C=C/C(O)c1ccc(CCc2ccccc2)cc1` (racemic), for which the Ki stood at 0.042 µM and the negative-log Ki (pKi) turned out to be 7.39. `O=C(O)/C=C/C(O)c1ccc(Cc2ccccc2)cc1` (racemic) yielded a Ki of 0.042 µM and a pKi of 7.38.

The molecule `O=C(O)C#CC(O)c1ccc(OCc2ccccc2)cc1` (racemic) showed a Ki of 1.6 µM and a pKi of 5.8.

In the case of `O=C(O)/C=C/C(O)c1ccc(-c2ccccc2)cc1` (racemic), the affinity corresponds to a Ki of 0.075 µM and the negative logarithm of the Ki (pKi) is on record as 7.14.

The molecule `O=C(O)C#CC(O)Cc1ccccc1` (racemic) returned a Ki of 3.5 µM and a pKi of 5.45. `O=C(O)[C@@H]1CCC[C@@H](O)C1` (relative stereo) registered a Ki of 28 µM and a pKi of 4.55.

`O=C(O)[C@H]1CCC[C@@H](O)C1` (relative stereo) registered a Ki of 35 µM and a pKi of 4.45.

`O=C(O)[C@]12CC[C@@H](O)[C@H]1C2` (relative stereo) showed a Ki of over 100 µM. On to `O=C(O)/C=C/C(O)c1ccc(Cc2ccccc2)cc1` (single isomer, unassigned; (+)), for which the Ki stood at 0.03 µM and the pKi turned out to be 7.47. The like results for `O=C(O)/C=C/C(O)c1ccc(Cc2ccccc2)cc1` (stereo in doubt; (-)-9e) were, in that order, 1.16 µM and 5.97.

`O=C(O)CCCO` [OXYBATE] came in with a Ki of 3.6 µM and a pKi of 5.44.
